Measured values as given in patent US9957288B2, “Pyrabactin analogues to modulate plant development” (Universiteit Gent, priority 2014, dated 2018).
Entries after “also recorded” stand apart in the source; their conditions may differ. Read-outs that look alike come from different tables or passages of the source.

Legend:
[1] = tested on: Arabidopsis thaliana Columbia (Col0) seedlings; experiment: Primary root elongation of etiolated seedlings on compound medium; format: in vivo
[2] = tested on: Arabidopsis thaliana Columbia (Col0) seedlings; experiment: Lateral root initiation (lateral roots + lateral root primordia, number and density); format: in vivo
[3] = tested on: Arabidopsis thaliana seeds; experiment: Arabidopsis thaliana seed germination assay; format: in vivo
tobacco epidermal strips = experiment: Stomatal closure assay on epidermal strips; format: cell-based, Nicotiana tabacum
[4] = tested on: etiolated Arabidopsis thaliana seedlings
[5] = tested on: Arabidopsis thaliana seedlings
[6] = tested on: Nicotiana benthamiana leaves; experiment: Leaf dehydration assay (weight loss of pre-treated detached leaves in dry air flow); format: in vivo; conditions: for % weight loss (average): average of 5-10 leaves, control 29.51%
[7] = 13 d old etiolated seedlings, 10 μM

| SMILES | PR ([1]; in vivo) | effect on primary root growth ([1]; in vivo) | LR ([2]; in vivo) | effect on LR+ LRP density (per cm primary root) ([2]; in vivo) | effect on number of LR+ LRP (lateral root initiation) ([2]; in vivo) | Seed germination ([3]; in vivo) | Stomata (tobacco epidermal strips) | AR ([4]; in vivo) | effect on adventitious root formation ([4]; in vivo) | Shoot ([5]; in vivo) | effect on shoot development ([5]; in vivo) | effect on seed germination ([3]; in vivo) | effect on stomatal aperture (tobacco epidermal strips) | further results |
| --- | --- | --- | --- | --- | --- | --- | --- | --- | --- | --- | --- | --- | --- | --- |
| CCOP(=O)(NCc1ccccn1)c1ccc(F)c2ccccc12 (stereo not drawn) [Analogue E2, Ethyl N-(pyridin-2-ylmethyl)-P-(4-fluoronapht-1-yl)phosphonamidate] | 0 | did not show a significant effect | + | reduced the numbers of LR+ LRP similarly to ABA | modest to weak inhibitors of lateral root formation | 0 | +++ | − | stimulated AR formation | − | stimulated the development of leaves in comparison with the control |  |  | stomata closure to % of the start opening (tobacco epidermal strips): 50%; time to 50% of closure of stomata (tobacco epidermal strips): 30 min |
| CCOP(=O)(NCc1ccccc1)c1ccc(F)c2ccccc12 (stereo not drawn) [Analogue E6, Ethyl N-(benzyl)-P-(4-fluoronapht-1-yl)phosphonamidate] | ++ | reducing the root growth comparable to pyrabactin | +++ | strong density reduction (even stronger than ABA) | strong inhibitors | 0 | +++ | +++ | reduction of adventitious root formation, respectively stronger or similar to pyrabactin | ++ | inhibition of leaf size comparable with pyrabactin | did not inhibit the germination | strongly induced stomatal closure |  |
| CCOP(=O)(Nc1cccnc1)c1ccccc1 (stereo not drawn) [Analogue D3, Ethyl N-(pyridin-3-yl)-P-(phenyl)phosphonamidate] | 0 | did not show a significant effect | 0 | increased the LR density | enhanced lateral root induction | 0 | 0 | 0 |  | 0 |  |  | intermediate stomatal closure |  |
| CC1=CC(=O)CC(C)(C)[C@@]1(O)/C=C/C(C)=C\C(=O)O [ABA, Abscisic acid, reference compound] | +++ |  | +++ | reduced the number of roots per cm primary root | strongly reduced the number of LR+ LRP | +++ | +++ | 0 | not affected | +++ |  | inhibited seed germination stronger than pyrabactin | rapidly induces stomatal closure | reduction of primary root length ([1]; in vivo): 5 fold; % weight loss (average) ([6]; leaves pre-treated with 10 μM): 18.54%; % weight loss (average) ([6]; leaves pre-treated with 100 μM): 16.99%; effect on leaf weight loss / transpiration ([6]; pre-treatment: ABA 10 and 100 μM, analogues 10 μM, 6 h dry air flow): significantly less weight loss; relative stomatal aperture (tobacco epidermal strips): 40%; time to 50% of closure of stomata (tobacco epidermal strips): ≤ 10 min |
| CCOP(=O)(NCc1cccnc1)c1ccc(Br)c2ccccc12 (stereo not drawn) [Analogue E3, Ethyl N-(pyridin-3-ylmethyl)-P-(4-bromonapht-1-yl)phosphonamidate] | 0 | did not show a significant effect | + | reduced the numbers of LR+ LRP similarly to ABA | modest to weak inhibitors of lateral root formation | 0 | ++ | − |  | 0 |  |  | intermediate stomatal closure |  |
| CCOP(=O)(NCc1ccncc1)c1ccc(Br)c2ccccc12 (stereo not drawn) [Analogue E7, Ethyl N-(pyridin-4-ylmethyl)-P-(4-bromonapht-1-yl)phosphonamidate] | +++ | strongly inhibited primary root growth | +++ |  | strong inhibitors | 0 | 0 | +++ | reduction of adventitious root formation, respectively stronger or similar to pyrabactin | +++ | strong inhibition of the seedling's shoot development |  | did not affect the size of the stomatal aperture | LR+ LRP density ([2]; in vivo): around 5 LR+ LRP per cm primary root |
| O=S(=O)(NCc1ccccn1)c1ccc(Br)c2ccccc12 [Pyrabactin, pyrabactin] |  |  |  |  |  |  |  |  |  |  |  |  |  | reduction of primary root length ([1]; 10 μM): 2.5 fold; PR ([1]; primary root, 10 μM, compared with control not-treated seedlings): ++; effect on LR+ LRP density (per cm primary root) [2, 7]: significantly increased the LR+ LRP density; effect on number of LR+ LRP (lateral root initiation) [2, 7]: only did moderately affect lateral root initiation; LR ([2]; lateral root, 10 μM, compared with control not-treated seedlings): ++; Seed germination ([3]; 10 μM, compared with control not-treated seeds): ++; effect on seed germination ([3]; different concentrations, gradual and dose-dependent): inhibited seed germination; Stomata (tobacco epidermal strips; 10 μM, compared with control not-treated epidermal strips): +; effect on stomatal aperture (tobacco epidermal strips; 10 μM, listed as pyrabactin): induced stomatal closure, rapidly but to a much lower degree than ABA; also recorded: demonstrated an effect on the stomata; effect on adventitious root formation ([4]; 10 μM): reduced the formation of these roots; AR ([4]; adventitious root, 10 μM, compared with control not-treated seedlings): +++; effect on shoot development ([5]; 10 μM): leaf size was also significantly reduced; Shoot ([5]; 10 μM, compared with control not-treated seedlings): ++; effect on shoot development ([5]; 10 μM, listed as pyrabactin): seedlings with a smaller shoot than control seedlings |
| CCOP(=O)(OCc1ccccn1)c1ccccc1 (stereo not drawn) [Analogue D2, Ethyl (pyridin-2-ylmethyl) phenylphosphonate] | 0 | did not show a significant effect | 0 | did not significantly affect the LR numbers | did not have a significant effect | 0 | 0 | 0 |  | 0 |  |  | did not affect the size of the stomatal aperture |  |
| CCOP(=O)(NCc1cccnc1)c1ccc(F)c2ccccc12 (stereo not drawn) [Analogue E5, Ethyl N-(pyridin-3-ylmethyl)-P-(4-fluoronapht-1-yl)phosphonamidate] | + | modest inhibitors of primary root elongation | + |  | modest to weak inhibitors of lateral root formation | +++ | + | 0 |  | 0 |  | significant reduction of the percentage of germinating seeds | intermediate stomatal closure |  |
| CCOP(=O)(NCc1ccccc1)c1ccc(Br)c2ccccc12 (stereo not drawn) [Analogue E4, Ethyl N-(benzyl)-P-(4-bromonapht-1-yl)phosphonamidate] | +++ | strongly inhibited primary root growth | +++ | strong density reduction (even stronger than ABA) | strong inhibitors | + | ++ | +++ | reduction of adventitious root formation, respectively stronger or similar to pyrabactin | +++ | strong inhibition of the seedling's shoot development | did not inhibit the germination | intermediate stomatal closure | cellular toxicity (inhibitory effect on plant development) ([4]; in vivo): exhibits cellular toxicity at the concentration used |
